The text below walks through data of publication PMC3583342 (Clinical pharmacology and therapeutics, 2008).

Data set [1] relates to dark-adapted pupil diameter (miosis). Description: Methadone pharmacodynamics: dark-adapted pupil diameter change. The following applies: for Maximum miosis / AUEC0-∞: mean ± SD, n=11; for AUEC0-∞: miosis. The data set is classed as in vivo, human.
The conditions of data set [2]: human, in vivo, po.
For data set [3] the following is noted: cited from earlier work.
A further data set is described as follows: Oral. Conditions: human, in vivo, 11.2 mg; for AUC(0-t): AUC0-96, oral d5-methadone HCl 11.2 mg; for AUC(0-t) / AUC(0-inf) / Cmax: mean ± SD, n=12; for AUC(0-inf): AUC0-∞; for AUC(0-inf) / Cmax / Tmax: oral d5-methadone HCl 11.2 mg; for Tmax: median (range).
A short description of the next data set: Intravenous. Conditions: human, in vivo, 6 mg, mean ± SD, n=12; for AUC(0-t): AUC0-96, IV methadone HCl 6.0 mg; for AUC(0-inf): AUC0-∞.
The subject of another data set is P-gp. The following applies: oral fexofenadine P-gp probe, cited from earlier work.
[4] abbreviates: 6.0 mg IV plus 11.2 mg oral methadone HCl.
[5] abbreviates: 6.0 mg IV plus 11.2 mg oral methadone HCl, acute ritonavir.
The mark [6] stands for this setting: 6.0 mg IV plus 11.2 mg oral methadone HCl, control.
Setting [7] is: 6.0 mg IV plus 11.2 mg oral methadone HCl, steady-state ritonavir.

Values joined by “and” are separate entries in the source; they are usually repeats but may differ in a detail not shown here. Equal entries are not always repeated. Where two headings read alike, the source gives them in different places.

As for `CCC(=O)C(CC(C)N(C)C)(c1ccccc1)c1ccccc1` (stereo not shown) [methadone], in data set [1] (setting [4]), the “time at which miosis was first detectable (first time point)” value amounted to 2 min and the “time of peak miosis effects” value fell in the range of 5 to 10 min. Further, in data set [1] (setting [5]), the Maximum miosis is given as 5.1 ± 1.0 mm and the “AUEC0-∞” value was 135 ± 61 mm•hr. For the same compound, in data set [1] (setting [6]), the Maximum miosis is given as 4.3 ± 1.2 mm and the “AUEC0-∞” value was 117 ± 61 mm•hr. Also, in data set [1] (setting [7]), the Maximum miosis was 4.2 ± 0.6 mm and the “AUEC0-∞” value is reported as 91 ± 46 mm•hr. In data set [1] (in vivo), the Emax is 3.0 ± 0.2 mm and 4.2 ± 0.2 ^b mm and 3.3 ± 0.1 ^c mm. For the same compound, in data set [2], the “time of second plasma concentration peak” value lay within 3 to 4 h. In addition, in data set [3] (100mg ritonavir alone for 7d), the “effect on plasma racemic methadone Cmax and AUC0-24” value is recorded as “no effect”. In addition, the “decreases in methadone plasma concentrations after ritonavir initiation” value in data set [3] (patients on stable methadone doses, no withdrawal symptoms) is recorded as 30-50%.

One may read the AUC(0-t) as the area under the concentration-time curve up to a stated or last time point. As a reminder, the AUC(0-inf) is total exposure, with the tail of the curve extrapolated. Higher therefore signals high exposure. The Cmax is the highest concentration seen after dosing. For orientation: Tmax means the time from dosing to the highest level. As for `CCC(=O)C(C[C@H](C)N(C)C)(c1ccccc1)c1ccccc1` [S-methadone], the AUC(0-t) in “Oral” (acute ritonavir) is 336 ± 170 ng·h/mL; in “Oral” (control), 580 ± 253 ng·h/mL; in “Oral” (steady-state ritonavir) it was 308 ± 161 ng·h/mL; in “Intravenous” (acute ritonavir), 215 ± 93 ng·h/mL; in “Intravenous” (control) it was 379 ± 164 ng·h/mL; in the data set “Intravenous” (steady-state ritonavir), 187 ± 107 ng·h/mL. The AUC(0-inf) came to 388 ± 233 ng·h/mL in “Oral” (acute ritonavir); 672 ± 335 ng·h/mL in the data set “Oral” (control); 340 ± 205 ng·h/mL in “Oral” (steady-state ritonavir); 241 ± 120 ng·h/mL in the data set “Intravenous” (IV methadone HCl 6.0 mg, acute ritonavir); 211 ± 129 ng·h/mL in the data set “Intravenous” (IV methadone HCl 6.0 mg, steady-state ritonavir). The peak concentration (Cmax) stood at 13 ± 6 ng/mL in “Oral” (acute ritonavir); 21 ± 8 ng/mL in the data set “Oral” (control); 57 ± 29 ng/mL in “Intravenous” (Cmax, IV methadone HCl 6.0 mg, steady-state ritonavir). Further, the Tmax is 4 h in “Oral” (acute ritonavir), 2 h in the data set “Oral” (control) and 4 h in “Oral” (steady-state ritonavir).

Consider `CC(C)c1nc(CN(C)C(=O)N[C@H](C(=O)N[C@@H](Cc2ccccc2)C[C@H](O)[C@H](Cc2ccccc2)NC(=O)OCc2cncs2)C(C)C)cs1` [ritonavir], for which the entries for the “increase in fexofenadine plasma AUC” value in the data set on P-gp (acute ritonavir) and with P-gp (steady-state ritonavir) were 2.8 fold and 1.4 fold, respectively.
